Measurements: patent US20260224716A1, “PTH ANALOGS FOR THE TREATMENT OF HYPOPARATHYROIDISM” (priority 2020, published 2026)

Key:
serum calcium [1] = assay: Serum calcium in rats after single subcutaneous dose (Example 10); assay type: in vivo, Sprague-Dawley rats; details: 30 or 60 nmol/kg SC single dose; increase within the physiological range
Description: A 96-well plate spectrophotometer (SpectraMax M5, Molecular Devices) was employed for detection. Serum Ca and Pi were measured on days 0, 1, 2, 4, 5 and 7. Absorbance (Ab) was measured at 650 nm for Ca and 340 nm for Pi. Manufacturer linearity is provided up to 15 mg/dl for Ca and 10 mg/dl for Pi.

serum calcium [2] = assay: Serum calcium in parathyroidectomized rats, ten daily doses (Example 16); assay type: in vivo, Sprague-Dawley rats; details: for starting serum calcium concentration: before first dose
Description: (§1) Rats were randomly distributed among 5 groups and injected subcutaneously for ten consecutive days with either vehicle or SEQ ID NO; 87 (10, 25, 40 nmol/kg; n=8). Two separate vehicle treated groups of rats were studied. The first represented control rats surgically managed like the remaining rats, but their parathyroid gland was not removed (sham control). The second vehicle control group represented rats that were surgically managed in the same manner as the SEQ ID NO: 87 treated rats. Following surgery and one week prior to testing all the rats were placed on a defined diet at a specific calcium concentration.
(§2) A 96-well plate spectrophotometer (SpectraMax M5, Molecular Devices) was employed for detection. […] Absorbance (Ab) was measured at 650 nm wavelength. Manufacturer provided linearity up to 15 mg/dL. The serum calcium was measured immediately prior to injection (time 0 hour), followed by 24, 48, 72, and 96 hours.

[3] = Pharmacokinetics in rats after single subcutaneous dose, LCMS (Example 10); details: rats
Description: Female Sprague-Dawley rats were randomly distributed among four groups with five or six rats per group. […] Dose volume was based on body weight and recorded prior to dosing.

[4] = Cleavage half-life / conversion of PTH prodrugs in PBS pH 7.4, 37° C. by LC-MS; assay type: physicochemical; details: for Percentage of prodrug: prodrug in PBS, LC-MS peak areas
Procedure, shortened: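 Prodrugs incubated in PBS pH 7.4 at 37 °C, aliquots sampled over time for LC-MS (10–80% acetonitrile/0.1% TFA gradient). Prodrug and drug quantified by relative peak areas; dissociation rate constant from log prodrug concentration versus time.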

[5] = Plasma drug levels in rats, repeat daily dosing 7 days, LCMS (Example 13); assay type: in vivo, Sprague-Dawley rats
Description: Female Sprague-Dawley rats were single or double-housed and randomly assigned to four groups (n=5-6 per group) as described in Table 20, and then weighed.
After the treatment ceased, the animals were monitored on days 9 and 11 (washout period).
Body weight and food intake were measured on days 0, 1, 3, 5 and 7. Ca was measured on days 0, 1, 2, 3, 4, 7, 9 and 11. Pi was determined on the same samples, except for days 9 and 11.

PTHR1 = target: T1, PTHR1 (Homo sapiens, UniProt Q03431); assay: cAMP Hunter Teriparatide Bioassay (CHO-K1 PTHR1 cells); assay type: cell-based
T1 construct: host or cells: CHO-K1
T1 sequence (Q03431 27-593): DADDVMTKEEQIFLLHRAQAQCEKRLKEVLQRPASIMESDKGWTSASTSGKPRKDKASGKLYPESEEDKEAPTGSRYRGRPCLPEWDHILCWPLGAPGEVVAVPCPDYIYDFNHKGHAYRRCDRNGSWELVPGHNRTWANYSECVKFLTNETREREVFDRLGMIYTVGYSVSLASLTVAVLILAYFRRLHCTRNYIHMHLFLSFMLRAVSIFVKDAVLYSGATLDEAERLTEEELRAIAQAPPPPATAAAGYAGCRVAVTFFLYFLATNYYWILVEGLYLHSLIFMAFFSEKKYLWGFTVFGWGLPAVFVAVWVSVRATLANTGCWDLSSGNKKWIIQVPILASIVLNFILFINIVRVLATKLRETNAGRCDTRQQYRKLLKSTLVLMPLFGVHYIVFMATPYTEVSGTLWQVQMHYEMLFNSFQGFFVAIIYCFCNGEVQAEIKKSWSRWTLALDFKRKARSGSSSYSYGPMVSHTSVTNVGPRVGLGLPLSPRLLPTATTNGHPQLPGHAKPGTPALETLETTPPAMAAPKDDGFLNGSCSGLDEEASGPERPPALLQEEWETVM
Description: The assessment of the bioactivity of a prodrug relative to its drug form was conducted in a proprietary commercial assay as contracted with Eurofins-Discover Rx Corporation win a cAMP Hunter® Teriparatide Bioassay (95-0118Y2). An 11-point dose curve in agonist mode was conducted for each individual peptide or incubation condition. Every sample was run at each dose in triplicate.
An 11-point dose curve in agonist mode was conducted for each individual peptide or incubation condition. Every sample was run at each dose in triplicate.
An 11-point dose curve in agonist mode was conducted for each individual peptide at each concentration. Every sample was run at each dose in triplicate.

serum calcium [6] = assay: Serum calcium in parathyroidectomized rats, four daily doses (Example 15); assay type: in vivo, Sprague-Dawley rats; details: for starting serum calcium concentration: before first dose
Description: as §1, with “subcutaneously for four consecutive days” for “subcutaneously for ten consecutive days”, “either vehicle (sterile 0.9% NaCl solution; n=6), or SEQ” for “either vehicle or SEQ”
as §2

serum calcium [7] = assay: Serum calcium in rats, repeat daily dosing 28 days (Example 14); assay type: in vivo, Sprague-Dawley rats
Description: Changes in body weight and food intake were also measured.
Body weight and food intake were measured on Day 0 (immediately prior to peptide administration), 1, 3, 7, 10, 14, 17, 21, 24, 28, 31, and 35. Serum Ca was measured at the start of the experiment and on Days 7, 14, 21, 28, 29, 30, 31, 32 and 34. Blood samples were collected via tail laceration for determination of total Ca in serum using commercially available colorimetric assays.

[8] = PTx rats, treatment group 10 nmol/kg
[9] = PTx rats, treatment group 25 nmol/kg
[10] = PTx rats, treatment group 40 nmol/kg

CC[C@H](C)[C@H](NC(=O)[C@H](CCC(=O)O)NC(=O)[C@H](CO)NC(=O)[C@@H](NC(=O)[C@H](CO)NC(=O)CN(C)C(=O)[C@H](N)CCCCNC(=O)CC[C@H](NC(=O)COCCOCCNC(=O)COCCOCCNC(=O)CC[C@H](NC(=O)CCCCCCCCCCCCCCCCC(=O)O)C(=O)O)C(=O)O)C(C)C)C(=O)N[C@@H](CCC(N)=O)C(=O)N[C@@H](CC(C)C)C(=O)N[C@@H](CCSC)C(=O)N[C@@H](Cc1c[nH]cn1)C(=O)N[C@@H](CC(N)=O)C(=O)N[C@@H](CC(C)C)C(=O)NCC(=O)N[C@@H](CCCCN)C(=O)N[C@@H](Cc1c[nH]cn1)C(=O)N[C@@H](CC(C)C)C(=O)N[C@@H](CC(N)=O)C(=O)N[C@@H](CO)C(=O)N[C@@H](CCSC)C(=O)N[C@@H](CCC(=O)O)C(=O)N[C@@H](CCCNC(=N)N)C(=O)N[C@H](C(=O)N[C@@H](CCC(=O)O)C(=O)N[C@@H](Cc1c[nH]c2ccccc12)C(=O)N[C@@H](CC(C)C)C(=O)N[C@@H](CCCNC(=N)N)C(=O)N[C@@H](CCCCN)C(=O)N[C@@H](CCCCN)C(=O)N[C@@H](CC(C)C)C(=O)N[C@@H](CCC(N)=O)C(=O)N[C@@H](CC(=O)O)C(=O)N[C@H](C(=O)N[C@@H](Cc1c[nH]cn1)C(=O)N[C@@H](CCCCNC(=O)CC[C@H](NC(=O)COCCOCCNC(=O)COCCOCCNC(=O)CC[C@H](NC(=O)CCCCCCCCCCCCCCCCC(=O)O)C(=O)O)C(=O)O)C(=O)O)C(C)C)C(C)C [SEQ ID NO: 87]
time of peak of serum calcium increase (serum calcium [1]): 3 days
serum calcium levels versus sham control (serum calcium [2]; PTx rats, 10, 25, 40 nmol/kg daily SC, after two days): virtually identical to sham control rats
serum calcium levels versus sham control (serum calcium [2]; PTx rats, mid and high-dose (25, 40 nmol/kg), four and seven days): matched or exceeded what was observed in the sham control rats
starting serum calcium concentration (serum calcium [2]; [8]): 4.5 mg/dL
starting serum calcium concentration (serum calcium [2]; [9]): 5.028 mg/dL
starting serum calcium concentration (serum calcium [2]; [10]): 5.108 mg/dL
starting serum calcium, decreased level versus PTx vehicle (serum calcium [2]; treatment group 10 nmol/kg): 3.4%
starting serum calcium, increased level versus PTx vehicle (serum calcium [2]; treatment group 25 nmol/kg): 7.9%
starting serum calcium, increased level versus PTx vehicle (serum calcium [2]; treatment group 40 nmol/kg): 9.6%
time of return to baseline value, prodrug ([3]; SEQ ID NO: 87 30 nmol/kg SC): one week
tolerability ([3]; doses where prodrug and drug could be measured by LCMS): did not adversely affect the rats
half-life ([4]; PBS buffer, pH 7.4, PBS, LCMS over 192 hours, FIG. 10): 112 h
Percentage of prodrug ([4]; 0 h): 100%
Percentage of prodrug ([4]; 48 h): 74%
Percentage of prodrug ([4]; 72 h): 62%
Percentage of prodrug ([4]; 120 h): 46%
Percentage of prodrug ([4]; 192 h): 31%
daily administrations to reach steady state plasma levels ([5]; daily SC dosing): four
difference in total concentration of prodrug to drug ([5]; seven daily SC injections, FIGS. 19A, 19B): 4 fold
Hillslope (PTHR1; FIG. 11, prodrug incubated in PBS 1 day): 1.421
Hillslope (PTHR1; FIG. 11, prodrug incubated in PBS 2 day): 2.102
Hillslope (PTHR1; FIG. 11, prodrug incubated in PBS 3 day): 1.825
Hillslope (PTHR1; FIG. 11, prodrug incubated in PBS 5 day): 2.102
Hillslope (PTHR1; FIG. 11, prodrug incubated in PBS 8 day): 2.172
PTH agonism (PTHR1; conclusions from Table 14, FIGS. 8A-8C): full PTH agonist of high nM potency
serum calcium versus sham control (serum calcium [6]; PTx rats, 25 nmol/kg daily SC, 72 hours): insignificantly different from the sham control rats
serum calcium versus sham control (serum calcium [6]; PTx rats, 40 nmol/kg daily SC, after 48 hours): slightly exceeding that of the sham control rats
serum calcium excess over the sham control (serum calcium [6]; PTx rats, 40 nmol/kg, […] (72 hours after last dose)): more than 0.2 nmol/ml
starting serum calcium concentration (serum calcium [6]; [8]): 1.185 nmol/µL
starting serum calcium concentration (serum calcium [6]; [9]): 1.354 nmol/µL
starting serum calcium concentration (serum calcium [6]; [10]): 1.251 nmol/µL
starting serum calcium, higher level than vehicle treated PTx-rats (serum calcium [6]; treatment group 10 nmol/kg): 9.2%
starting serum calcium, higher level than vehicle treated PTx-rats (serum calcium [6]; treatment group 25 nmol/kg): 24.8%
starting serum calcium, higher level than vehicle treated PTx-rats (serum calcium [6]; treatment group 40 nmol/kg): 15.3%
absolute increase in serum Ca over the course of the study (serum calcium [7]; 4 nmol/kg daily SC): 1.356 mg/dL
percentage increase in serum Ca (serum calcium [7]; 4 nmol/kg daily SC): 14.7%
absolute increase in serum Ca over the course of the study (serum calcium [7]; 8 nmol/kg daily SC): 1.452 mg/dL
percentage increase in serum Ca (serum calcium [7]; 8 nmol/kg daily SC): 16.7%
absolute increase in serum Ca over the course of the study (serum calcium [7]; 12 nmol/kg daily SC): 2.072 mg/dL
percentage increase in serum Ca (serum calcium [7]; 12 nmol/kg daily SC): 23%
general health (serum calcium [7]; 4, 8, 12 nmol/kg daily SC): All animals appeared healthy
